# Tests used:
# Assay in all cases: relative viability (nuclei count vs DMSO), 5 days (fraction); higher = more cells survive
# NCI-H1734 = system: NCI-H1734
# How it was run: (§1)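 Each reported value is a median over duplicate plates. It expresses relative viability: treated-well nuclei count divided by vehicle-well nuclei count. Lung cancer cell lines in 1536-well plates were dosed by pin tool a day after seeding, alone with one drug or with a fixed anchor-drug dose plus five library-drug doses (not always all listed) in √10 steps, and nuclei were counted after 5 days.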
# EMC-BAC-2 = system: EMC-BAC-2
# How it was run: as §1
# NCI-H647 = system: NCI-H647
# How it was run: as §1
# NCI-H1915 = system: NCI-H1915
# How it was run: as §1
# NCI-H1792 = system: NCI-H1792
# How it was run: as §1
# NCI-H2405 = system: NCI-H2405
# How it was run: as §1
# LCLC-103H = system: LCLC-103H
# How it was run: as §1
# EPLC-272H = system: EPLC-272H
# How it was run: as §1
# SK-LU-1 = system: SK-LU-1
# How it was run: as §1
# NCI-H1395 = system: NCI-H1395
# How it was run: as §1
# NCI-H661 = system: NCI-H661
# How it was run: as §1
# NCI-H1975 = system: NCI-H1975
# How it was run: as §1
# ABC-1 = system: ABC-1
# How it was run: as §1
# RERF-LC-KJ = system: RERF-LC-KJ
# How it was run: as §1
# LOU-NH91 = system: LOU-NH91
# How it was run: as §1
# 201T = system: 201T
# How it was run: as §1
# NCI-H1793 = system: NCI-H1793
# How it was run: as §1
# UMC-11 = system: UMC-11
# How it was run: as §1
# NCI-H23 = system: NCI-H23
# How it was run: as §1
# NCI-H1651 = system: NCI-H1651
# How it was run: as §1
# NCI-H2023 = system: NCI-H2023
# How it was run: as §1
# NCI-H1437 = system: NCI-H1437
# How it was run: as §1
# HCC-78 = system: HCC-78
# How it was run: as §1
compound,measurement,setting,value
O=c1[nH]c2ccccc2n1C1CCN(CCCC(c2ccc(F)cc2)c2ccc(F)cc2)CC1 [Pimozide] + N=C(N)NC(=N)NCCc1ccccc1 [Phenformin] (partner 250 µM),relative viability,NCI-H1734; first compound 0.08 µM,0.408
same,relative viability,NCI-H1734; first compound 0.253 µM,0.366
same,relative viability,NCI-H1734; first compound 2.53 µM,0.373
same,relative viability,NCI-H1734; first compound 8 µM,0.426
same,relative viability,EMC-BAC-2; first compound 0.08 µM,0.561
same,relative viability,EMC-BAC-2; first compound 0.253 µM,0.515
same,relative viability,EMC-BAC-2; first compound 0.8 µM,0.483
same,relative viability,EMC-BAC-2; first compound 2.53 µM,0.486
same,relative viability,EMC-BAC-2; first compound 8 µM,0.519
same,relative viability,NCI-H647; first compound 0.08 µM,0.59
same,relative viability,NCI-H647; first compound 0.253 µM,0.497
same,relative viability,NCI-H647; first compound 0.8 µM,0.435
same,relative viability,NCI-H647; first compound 2.53 µM,0.452
same,relative viability,NCI-H647; first compound 8 µM,0.527
same,relative viability,NCI-H1915; first compound 0.08 µM,0.363
same,relative viability,NCI-H1915; first compound 0.253 µM,0.349
same,relative viability,NCI-H1915; first compound 0.8 µM,0.349
same,relative viability,NCI-H1915; first compound 2.53 µM,0.366
same,relative viability,NCI-H1915; first compound 8 µM,0.367
same,relative viability,NCI-H1792; first compound 0.08 µM,0.356
same,relative viability,NCI-H1792; first compound 0.253 µM,0.314
same,relative viability,NCI-H1792; first compound 2.53 µM,0.233
same,relative viability,NCI-H1792; first compound 8 µM,0.278
same,relative viability,NCI-H2405; first compound 0.08 µM,0.412
same,relative viability,NCI-H2405; first compound 0.253 µM,0.389
same,relative viability,NCI-H2405; first compound 0.8 µM,0.478
same,relative viability,NCI-H2405; first compound 2.53 µM,0.381
same,relative viability,NCI-H2405; first compound 8 µM,0.418
same,relative viability,LCLC-103H; first compound 0.08 µM,0.327
same,relative viability,LCLC-103H; first compound 0.253 µM,0.324
same,relative viability,LCLC-103H; first compound 0.8 µM,0.317
same,relative viability,LCLC-103H; first compound 2.53 µM,0.332
same,relative viability,LCLC-103H; first compound 8 µM,0.364
same,relative viability,EPLC-272H; first compound 0.08 µM,0.29
same,relative viability,EPLC-272H; first compound 0.253 µM,0.306
same,relative viability,EPLC-272H; first compound 0.8 µM,0.342
same,relative viability,EPLC-272H; first compound 2.53 µM,0.0767
same,relative viability,EPLC-272H; first compound 8 µM,0.253
same,relative viability,SK-LU-1; first compound 0.08 µM,0.559
same,relative viability,SK-LU-1; first compound 0.253 µM,0.533
same,relative viability,SK-LU-1; first compound 0.8 µM,0.558
same,relative viability,SK-LU-1; first compound 2.53 µM,0.532
same,relative viability,SK-LU-1; first compound 8 µM,0.415
same,relative viability,NCI-H1395; first compound 0.08 µM,0.411
same,relative viability,NCI-H1395; first compound 0.253 µM,0.405
same,relative viability,NCI-H1395; first compound 0.8 µM,0.411
same,relative viability,NCI-H1395; first compound 2.53 µM,0.42
same,relative viability,NCI-H1395; first compound 8 µM,0.403
same,relative viability,NCI-H661; first compound 0.08 µM,0.256
same,relative viability,NCI-H661; first compound 0.253 µM,0.287
same,relative viability,NCI-H661; first compound 0.8 µM,0.257
same,relative viability,NCI-H661; first compound 2.53 µM,0.263
same,relative viability,NCI-H661; first compound 8 µM,0.257
same,relative viability,NCI-H1975; first compound 0.08 µM,0.427
same,relative viability,NCI-H1975; first compound 0.253 µM,0.395
same,relative viability,NCI-H1975; first compound 0.8 µM,0.414
same,relative viability,NCI-H1975; first compound 2.53 µM,0.454
same,relative viability,NCI-H1975; first compound 8 µM,0.391
same,relative viability,ABC-1; first compound 0.08 µM,0.265
same,relative viability,ABC-1; first compound 0.253 µM,0.258
same,relative viability,ABC-1; first compound 0.8 µM,0.227
same,relative viability,ABC-1; first compound 2.53 µM,0.287
same,relative viability,ABC-1; first compound 8 µM,0.209
same,relative viability,RERF-LC-KJ; first compound 0.08 µM,0.416
same,relative viability,RERF-LC-KJ; first compound 0.253 µM,0.467
same,relative viability,RERF-LC-KJ; first compound 0.8 µM,0.409
same,relative viability,RERF-LC-KJ; first compound 2.53 µM,0.264
same,relative viability,RERF-LC-KJ; first compound 8 µM,0.401
same,relative viability,LOU-NH91; first compound 0.08 µM,0.43
same,relative viability,LOU-NH91; first compound 0.253 µM,0.702
same,relative viability,LOU-NH91; first compound 0.8 µM,0.677
same,relative viability,LOU-NH91; first compound 2.53 µM,0.79
same,relative viability,LOU-NH91; first compound 8 µM,0.581
same,relative viability,201T; first compound 0.08 µM,0.467
same,relative viability,201T; first compound 0.253 µM,0.404
same,relative viability,201T; first compound 0.8 µM,0.444
same,relative viability,201T; first compound 2.53 µM,0.379
same,relative viability,201T; first compound 8 µM,0.44
same,relative viability,NCI-H1793; first compound 0.253 µM,0.29
same,relative viability,NCI-H1793; first compound 0.8 µM,0.226
same,relative viability,NCI-H1793; first compound 2.53 µM,0.237
same,relative viability,NCI-H1793; first compound 8 µM,0.356
same,relative viability,UMC-11; first compound 0.08 µM,0.331
same,relative viability,UMC-11; first compound 0.253 µM,0.333
same,relative viability,UMC-11; first compound 0.8 µM,0.344
same,relative viability,UMC-11; first compound 2.53 µM,0.313
same,relative viability,UMC-11; first compound 8 µM,0.245
same,relative viability,NCI-H23; first compound 0.08 µM,0.782
same,relative viability,NCI-H23; first compound 0.253 µM,0.741
same,relative viability,NCI-H23; first compound 0.8 µM,0.673
same,relative viability,NCI-H23; first compound 2.53 µM,0.692
same,relative viability,NCI-H23; first compound 8 µM,0.79
same,relative viability,NCI-H1651; first compound 0.08 µM,0.346
same,relative viability,NCI-H1651; first compound 0.253 µM,0.305
same,relative viability,NCI-H1651; first compound 0.8 µM,0.316
same,relative viability,NCI-H1651; first compound 2.53 µM,0.338
same,relative viability,NCI-H1651; first compound 8 µM,0.283
same,relative viability,NCI-H2023; first compound 0.08 µM,0.41
same,relative viability,NCI-H2023; first compound 0.253 µM,0.403
same,relative viability,NCI-H2023; first compound 0.8 µM,0.397
same,relative viability,NCI-H2023; first compound 2.53 µM,0.385
same,relative viability,NCI-H2023; first compound 8 µM,0.354
same,relative viability,NCI-H1437; first compound 0.08 µM,0.395
same,relative viability,NCI-H1437; first compound 0.253 µM,0.318
same,relative viability,NCI-H1437; first compound 0.8 µM,0.327
same,relative viability,NCI-H1437; first compound 2.53 µM,0.275
same,relative viability,NCI-H1437; first compound 8 µM,0.25
same,relative viability,HCC-78; first compound 0.08 µM,0.781
same,relative viability,HCC-78; first compound 0.8 µM,0.628
same,relative viability,HCC-78; first compound 2.53 µM,0.635
same,relative viability,HCC-78; first compound 8 µM,0.678
